Reference: patent publication US8591877B2, “Cellulose-based nanoparticles for drug delivery” (Ontario Institute for Cancer Research, priority 2011, dated 2013)
Like-named read-outs stand apart in the source and are kept apart here.

What was measured:
[1] = tested on: EMT-6 murine mammary carcinoma cells; assay: In vitro cytotoxicity (IC50 analysis), XTT assay; assay type: cell-based; settings: Mus musculus, EMT-6 (mammary)
Procedure: (§1) EMT-6 murine mammary carcinoma cells and LL/2 murine Lewis lung cell carcinoma cells were cultured in DMEM media (Invitrogen) with high glucose, supplemented with 10% FBS (Invitrogen), penicillin (100 U/ml) and streptomycin (100 μg/ml) (Invitrogen). The mouse mammary carcinoma cell line EMT-6 was a generous gift from Dr. David Stojdl at the CHEO Research Institute and Dr. Douglas Mahoney at the University of Ottawa. For plating, cells were released from the culture flask with trypsin (Invitrogen), resuspended at a concentration of 1×10^5 cell/mL, and 100 uL of cell suspension was added to the wells of 96 well polystyrene plate. The cells were maintained for 24 hours in culture (37° C., 5% CO2, humidified) before addition of particles. DTX solutions were made up in DMSO and diluted with media to form a 100 nM stock solution with 0.1% DMSO content. These DTX samples were 2× serially diluted with 0.1% DMSO media. Cellax particles were assayed for DTX content, and 10× serially diluted with media. The cultures were maintained for three days, at which time cell viability was assayed by the XTT assay. Briefly, a 1 mg/mL solution of XTT reagent (Sigma) in water was prepared, and phenazine (Sigma) was added just before analysis ([…]). The culture plates were incubated for two hours at 37° C., and absorbance of each well at 480 nm was then read. Wells treated with media (or 0.1% DMSO media) represent 100% viable cultures, and wells containing no cells represent background signal. In a parallel experiment, the DTX or Cellax-containing media were added to the EMT-6 and LL/2 cultures in four steps, with addition of ¼ the dose every 12 hours for two days. The data was analyzed in GraphPad Prism, and the IC50 for each system was calculated.

[2] = tested on: LL/2 murine Lewis lung cell carcinoma cells; assay: In vitro cytotoxicity (IC50 analysis), XTT assay; assay type: cell-based; settings: Mus musculus, LL/2 (lung)
Procedure: as §1

[3] = Maximum tolerated dose (MTD) study in healthy mice; settings: female, BALB/c, mouse, in vivo, iv; single i.v. dose, limit <5% body weight loss; read-out: MTD for docetaxel in mice
Excerpt: (§2) Female BALB/c and C57/BL6 mice (aged 6 weeks, 18-20 g) were purchased from The Jackson Laboratory (Bar Harbor, Me.). All experimental protocols in this study were approved by the Animal Care Committee of the University Health Network (Toronto, Ontario, Canada) in accordance with the policies established in the Guide to the Care and Use of Experimental Animals prepared by the Canadian Council of Animal Care. For each study, the DTX was formulated in a Tween80/ethanol/saline (20:13:67) solution (4 mg DTX/mL), and sterile filtered. The Cellax particles were adjusted to 4, 7.5 or 15 mg DTX/mL in saline and sterile filtered.
Tissues from mice (organs, bones, and tumors) were rinsed with saline and fixed in 10% formalin for 2 days, followed by storage in 70% ethanol. Preparation of tissues into slides was performed at the Toronto General Hospital Pathology Research Program lab (Toronto, ON). […] Prepared slides were analyzed on an Aperio Scanner at the Advanced Optical Microscopy Facility (AOMF) at the Princess Margaret Hospital (Toronto, ON). […] For TUNEL, Ki67, and CD31 stained samples, brown pixels were counted with the ImageScope Positive Pixel Count algorithm. For each tumor or organ analyzed, three tissue sections were each divided into three equal regions, generating n=9 data points. Image analysis output were positive pixel counts divided by the area analyzed. […]

EMT-6 flank tumors = assay: Subcutaneous flank tumor study, EMT-6; assay type: in vivo
Excerpt: as §2
Tissues from mice (organs, bones, and tumors) were rinsed with saline and fixed in 10% formalin for 2 days, followed by storage in 70% ethanol. […] Prepared slides were analyzed on an Aperio Scanner at the Advanced Optical Microscopy Facility (AOMF) at the Princess Margaret Hospital (Toronto, ON). […] For TUNEL, Ki67, and CD31 stained samples, brown pixels were counted with the ImageScope Positive Pixel Count algorithm. For each tumor or organ analyzed, three tissue sections were each divided into three equal regions, generating n=9 data points. Image analysis output were positive pixel counts divided by the area analyzed.
EMT-6 cells were cultured as described previously. […] The tumor size was measured by a caliper, and body weight was monitored. […]

LL/2 flank tumors = assay: Subcutaneous flank tumor study, LL/2; assay type: in vivo
[4] = tested on: EMT-6 cells (i.v. inoculated); assay: Metastatic tumor study, i.v. EMT-6 cells; assay type: in vivo, BALB/c mice
Excerpt: as §2
Healthy BALB/c mice received an i.v. dose of EMT-6 cells (in supplement free DMEM media) via tail vein injection (50 uL, 2.5×10^5 cell/mL), and one day following received a dose of Cellax (40 mg DTX/kg), 40 mg/kg DTX, or saline (n=10/group). A second dose (20 mg/kg DTX) was administered on day 7 post-cell injection. Mice were sacrificed when >20% body weight loss was recorded, or at the first signs of behavioral or mobility dysfunction. The lungs, heart, liver, kidneys, spleen, femurs, and brain were harvested for histological analysis. A Kaplan Meier plot of survival probability was generated from the survival data.

[5] = tested on: PAN02 cells (murine pancreatic cancer); assay: Intraperitoneal tumor model study, PAN02; assay type: in vivo, C57/BL6 mice; settings: PAN02 i.p. model
Excerpt: as §2
PAN02 cells (murine pancreatic cancer) were cultured in RPMI 1640 supplemented with 10% FBS (Invitrogen), penicillin (100 U/ml) and streptomycin (100 μg/ml) (Invitrogen), and pyruvate (1 mM). Prior to inoculation, the cells were lifted from the culture plates with TrypLE Express (Invitrogen), and re-suspended in supplement free (no FBS, no antibiotics) RPMI media. The PAN02 cells (5×10^6 cells/mL, 0.5 mL) were injected into the intraperitoneal space of C57/BL6 mice. One day post-administration of the cells, the mice (n=3 per group) were treated with DTX (40 mg/kg), Cellax (40 mg DTX eqv/kg), or saline. Mice were sacrificed when >20% body weight loss was recorded, or at the first signs of behavioral or mobility dysfunction.

[6] = doses of 210, 150, 300, and 233 mg/m^2 for PTX, NK105, Genexol, Opaxio respectively; cited from earlier work

Question: What does the source list for `CC(=O)O[C@@]12CO[C@@H]1C[C@H](O)[C@@]1(C)C(=O)[C@H](O)C3=C(C)[C@@H](OC(=O)[C@H](O)[C@@H](NC(=O)OC(C)(C)C)c4ccccc4)C[C@@](O)([C@@H](OC(=O)c4ccccc4)[C@H]21)C3(C)C` [DTX, Docetaxel]?
Answer: IC50 ([1]; EMT6, 48 h, dose in four parts over two days, read-out: IC50 DTX (nM) Metronomic): 6 nM; IC50 ([1]; EMT6, single (bolus) dose, XTT, Cellax as DTX content, read-out: IC50): 80 nM; IC50 ([2]; 48 h, dose in four parts over two days, read-out: IC50 DTX (nM) Metronomic): 12 nM; IC50 ([2]; single (bolus) dose, XTT, Cellax as DTX content, read-out: IC50): 767 nM; MTD at 7 days [3]: 40 mg/kg; effect on tumor growth (EMT-6 flank tumors; EMT-6 flank model, single dose 40 mg/kg DTX (eqv), Cellax p<0.001 vs controls, p<0.05 vs DTX): minor (not significant) effect on tumour growth; tumor histology: apoptosis (TUNEL), cell replication (Ki67), angiogenesis (CD31) (EMT-6 flank tumors; EMT-6 tumors, 40 mg/kg, compared to DTX treated tumors and controls): caused necrosis/apoptosis; effect on tumor growth (LL/2 flank tumors; LL/2 flank model, single dose 40 mg/kg DTX (eqv)): did not alter tumor growth characteristics; tumor histology: necrosis (H&E) and TUNEL staining (LL/2 flank tumors; LL/2 tumors): positive TUNEL staining was minimal; median survival time ([4]; 40 mg/kg day 1, 20 mg/kg day 7, n=10/group): 9 days; onset of weight loss ([4]; metastatic EMT-6 model, 40 mg/kg): 6 days; signs of disease stress: parelsis (leg movements), piloerection ([4]; metastatic EMT-6 model, mice affected per group of 10): 4/10; survival ([5]; 40 mg/kg): survival was significantly extended; weight loss or disease symptoms ([5]; 40 mg/kg (DTX eqv), n=3 per group): did not exhibit signs of weight loss or disease symptoms

Question: For `CC(=O)O[C@H]1C(=O)[C@@]2(C)[C@H]([C@H](OC(=O)c3ccccc3)[C@]3(O)C[C@H](OC(=O)[C@H](O)[C@@H](NC(=O)c4ccccc4)c4ccccc4)C(C)=C1C3(C)C)[C@]1(OC(C)=O)CO[C@@H]1C[C@@H]2O` [PTX, paclitaxel], which half life [6] is on record?
Answer: Its half life is 13.3 h.

Question: With `Nc1ccn([C@@H]2O[C@H](CO)[C@@H](O)C2(F)F)c(=O)n1` [gemcitabine] as the compound, how does the benefit of treatment ([5]; 120 mg/kg) read?
Answer: The benefit of treatment was “did not confer significantly increased benefits”.
